From patent publication US11767286B2, “Phenylpropionate compound, preparation method for same, and applications thereof” (SUZHOU PHARMAVAN CO., LTD, priority 2017, dated 2023)
Read-outs that look alike come from different tables or passages of the source.

Legend:
IL-1β = assay: Inflammatory factor IL-1β in blood and brain tissues of rats with acute cerebral ischemia-reperfusion; type: in vivo, SD rats; details: 4 mg/kg iv 2 h after reperfusion; 4 h after administration; n=5
Protocol: (§1) Trial method: Effects on inflammatory factors and blood viscosity of rats with acute cerebral ischemia-reperfusion: 70 Male SD rats underwent an MACO surgery by a suture method, and after the surgery, alive rats were randomly grouped (into 7 groups, the number of successful animals in each group was guaranteed to be 6 to 8). Blood perfusion was recovered 2 h after MCAO, and corresponding trial medicaments were intravenously injected 2 h after blood reperfusion. 4 hours after the administration, blood was collected and the rats were sacrificed to take out brain tissues. The brain tissues and part of the blood were centrifuged to collect serum which was detected for inflammatory factors, and part of the blood was detected for blood viscosity by using a blood viscometer. Detected indicators: cerebral infarction area; inflammatory factors IL-1β and TNF-α; and blood viscosity.
(§2) Table 3 lists results of effects of phenylpropionate compounds (4 mg/kg) on inflammatory factors in blood and brain tissues of rats (n=5).

[1] = system: rats with acute cerebral ischemia-reperfusion; assay: Cerebral infarction area of rats with acute cerebral ischemia-reperfusion (MCAO, suture method); type: in vivo, SD rats; parameters: Cerebral Infarction Area: unit not given here; details: n=5; for Cerebral Infarction Area: 4 mg/kg iv 2 h after reperfusion (2 h MCAO), sampled 4 h after administration; for inhibition in vivo at 4 mg/kg: Rattus norvegicus, 4 h, 4 mg/kg iv 2 h after reperfusion, vs solvent control, read-out: Percentage of Cerebral Infarction Area Reduction
Protocol: as §1
Table 1 lists results of effects of phenylpropionate compounds (4 mg/kg) on cerebral infarction area of rats with acute cerebral ischemia (n=5).

[2] = system: rats with acute cerebral ischemia-reperfusion; assay: Blood viscosity of rats with acute cerebral ischemia-reperfusion (blood viscometer); type: in vivo, SD rats; parameters: unit not given here; details: 4 mg/kg iv 2 h after reperfusion; blood 4 h after administration; n=5
Protocol: as §1
Table 2 lists results of effects of phenylpropionate compounds (4 mg/kg) on blood viscosity of rats (n=5).

TNF-α = assay: Inflammatory factor TNF-α in blood and brain tissues of rats with acute cerebral ischemia-reperfusion; type: in vivo, SD rats; details: 4 mg/kg iv 2 h after reperfusion; 4 h after administration; n=5
Protocol: as §1, §2

[3] = system: platelet aggregation induced with ADP; assay: Maximum platelet aggregation rate of rabbits, induced with ADP; type: cell-based; details: rabbit plasma, 4 mg/kg as printed, n=3; for inhibition at 4 mg/kg: Oryctolagus cuniculus, Platelet
Protocol: (§3) Effects on maximum platelet aggregation rate of rabbits: 3 Rabbits were anesthetized, and blood was collected from the heart to obtain 14 parts of plasma for each rabbit (1 ml per part of plasma). 7 Parts were induced with ADP to allow platelet aggregation, and 7 parts were induced with a platelet activating factor. After the induction, a solvent, positive control drug aspirin, and 5 samples to be trialed were separately added to the plasma, and maximum platelet aggregation rate was detected with a platelet aggregation meter. The trials were repeated 3 times, and an average was taken. Detected indicator: maximum platelet aggregation rate.
(§4) Table 4 lists results of effects of phenylpropionate compounds (4 mg/kg) on platelet aggregation rate of rabbits (n=3).

[4] = system: platelet aggregation induced with a platelet activating factor; assay: Maximum platelet aggregation rate of rabbits, induced with PAF; type: cell-based; details: rabbit plasma, 4 mg/kg as printed; for inhibition at 4 mg/kg: Oryctolagus cuniculus, Platelet, n=3, read-out: Inhibiton rate on Aggregation; for Maximum Aggregation Rate: n=3
Protocol: as §3, §4

[5] = Distribution in brain: plasma and intracerebral concentrations after intravenous injection; type: in vivo; details: both sexes, rat, rats, 4 mg/kg iv; for Kp at 10 min / Kp at 60 min / Kp at 180 min: brain/plasma, read-out: Brain/Blood Concentration Ratio
Protocol: In this example, Compounds A to E, D-bornyl ferulate, and D-tanshinol borneol ester were measured for distribution in brain. Structures of D-bornyl ferulate (Patent Application No.: 201510243181.5) and D-tanshinol borneol ester compounds are as follows:
Method for testing distribution in brain: 42 rats with a weight range of 200±20 g were taken. The rats were randomly divided into 7 groups, with 6 rats per group, half male and half female. Rats were fasted with free access to water for 12 h and then intravenously injected with 4 mg/kg of a compound. Rats in the 3 groups were sacrificed through femoral artery bleeding and collected for blood 10 min, 60 min, 180 min after administration, respectively. Brains were taken out, 0.2 g was weighted, and 1 mL of pure water was added for homogenizing. The blood samples and brain homogenate samples were stored at −20° C.
Distribution of Compounds A to E, and D-bornyl ferulate and D-tanshinol borneol ester compounds in brain: Data on concentrations of Compounds A to E, D-bornyl ferulate, and D-tanshinol borneol ester in plasma and intracerebral in rats intravenously injected with 4 mg/kg of Compounds A to E, D-bornyl ferulate, and D-tanshinol borneol ester are listed in Table 9.

[6] = system: SD rat model of focal ischemia-reperfusion; assay: Dose-effect relationship in SD rat model of focal ischemia-reperfusion (MCAO); type: in vivo, SD rats; details: 4.0 mg/kg, given 2 h after reperfusion, mean ± standard error; for Score of Symptoms of Neurological Deficits: 48 h, modified Bederson 5-point scale; for Infarction area: evaluated after 48 h
Protocol: In this example, phenylpropionate compounds were studied for dose-effect relationship, with D-bornyl ferulate (administrated at 4.0 mg/kg) and D-tanshinol borneol ester (administrated at 4.0 mg/kg) as positive control drugs. Structures of D-bornyl ferulate (Patent Application No.: 201510243181.5) and D-tanshinol borneol ester compounds are as follows:
Trial method: A cerebral ischemia reperfusion model of middle cerebral artery occlusion (MCAO) was prepared by an internal carotid artery suture method. An animal was anesthetized with 10% chloral hydrate (3.6 mL/kg) and then fixed on an operating table in a supine position. Its skin was disinfected, and a midline incision was made on the neck. The right common carotid artery, external carotid artery, and internal carotid artery were separated, the vagus nerve was gently striped off, and the external carotid artery was ligated and cut. The common carotid artery was clamped at the proximal end. […] The nylon thread was advanced through the bifurcation of the common carotid artery into the internal carotid artery, and then was slowly inserted until there was slight resistance (about 20 mm from the bifurcation) to block all the blood supply to the middle cerebral artery. 2 h after cerebral ischemia, the nylon thread was gently pulled out to restore blood supply for reperfusion, and the neck skin was sutured and disinfected. The animal was put back in a cage and raised. During the modeling operation, animals with abnormal conditions due to anesthesia, surgery, etc. were excluded, and successfully modeled animals were randomly grouped. Schemes were set according to different trial doses, and drug treatment was given 2 h after cerebral ischemia-reperfusion. Death conditions were recorded every day after the surgery, and indicators were evaluated after 48 h. In the whole trial process, general conditions were observed, mainly including: death, coma, breathing, urine and feces traits, hair colors, mental status, vomiting and vomitus, bleeding, convulsion, spasm, etc. Abnormal animals due to unexpected factors were excluded. Finally, unblinding was conducted by a person who made blind trials.
Evaluated indicator: (1) Evaluation of symptoms of neurological deficits: The symptoms of neurological deficits were evaluated by using a modified Bederson 5-point scale. A single-blind method was used for evaluating the symptoms of neurological deficits in rats with brain trauma. That is, a trial designer marked animals in accordance with groups, and an experimenter who scored the symptoms of neurological deficits had no knowledge of how the animals were grouped. After scoring was completed, the scorer submitted scoring results for various marks to the designer, and the designer performed unblinding to obtain scores of animals in each trial group. (2) Measurement of cerebral infarction area: A method reported in the literature was used. An animal was anesthetized with 10% chloral hydrate and decapitated to collect brain. The olfactory bulb, cerebellum and lower brain stem were removed. Blood stains on the surface of the brain were rinsed with normal saline, the residual water stains on the surface were absorbed, and the brain was placed at −80° C. for 7 min. After the brain was taken out, a coronal section was immediately made at downwards and vertical to the sight intersection plane, and brain slices were made every 2 mm backwards. Brain slices were placed in a TTC (20 g/L) dye solution prepared with 0.9% normal saline, and incubated at 37° C. for 90 min. Normal brain tissues were stained deep red, and ischemic brain tissues were pale-white. After rinsed with normal saline, the brain sections were quickly arranged in order from front to back, the residual water stains on the surface were absorbed to dryness, and pictures were taken. Image analysis software was used for statistics on the pictures. […]

[7] = brain, read-out: Mean Intracerebral Concentration
[8] = plasma, read-out: Mean Plasma Concentration

Compound	IL-1β (IL-1β) [ng/L]	Cerebral Infarction Area [1]	inhibition in vivo at 4 mg/kg [1] [%]	Blood viscosity, High Shear [2]	Blood viscosity, Low Shear [2]	TNF-α (TNF-α) [ng/L]	inhibition at 4 mg/kg [3] [%]	Maximum Aggregation Rate [3] [%]	inhibition at 4 mg/kg [4] [%]	Maximum Aggregation Rate [4] [%]	Kp at 10 min [5]	Kp at 60 min [5]	Kp at 180 min [5]	concentration at 10 min [5, 7] [ng/g]	concentration at 60 min [5, 7] [ng/g]	concentration at 180 min [5, 7] [ng/g]	concentration at 10 min [5, 8] [ng/mL]	concentration at 60 min [5, 8] [ng/mL]	concentration at 180 min [5, 8] [ng/mL]	Score of Symptoms of Neurological Deficits [6]	also measured
CC(=O)Oc1ccccc1C(=O)O [Aspirin, aspirin, reference compound]	62.9 ± 11.5	22.7 ± 4.05	38	2.64 ± 0.199	12.2 ± 0.742	647 ± 45.2	54.1	14.8 ± 3.99	40.8	41.3 ± 1.53	–	–	–	–	–	–	–	–	–	–	–
COc1cc(CCC(=O)O[C@H]2C[C@H]3CC[C@]2(C)C3(C)C)cc(O)c1O [Compound B]	63.4 ± 5.6	18.7 ± 7.16	49	2.73 ± 0.122	13.9 ± 0.134	645 ± 42.3	46.8	17.5 ± 2.84	55	32.1 ± 9.7	1.6	4.5	1.8	2490 ± 437	1270 ± 234	247 ± 87.5	1530 ± 581	285 ± 105	136 ± 60.4	–	–
COc1cc(CCC(=O)O[C@H]2C[C@H]3CC[C@]2(C)C3(C)C)c(Br)cc1O [Compound D]	53.4 ± 8.9	19.4 ± 4.61	47.1	2.63 ± 0.312	13.3 ± 0.354	562 ± 34.2	55.3	14.7 ± 7.42	34.6	46.7 ± 9.8	1.6	4.6	4	2260 ± 323	1430 ± 285	485 ± 125	1400 ± 236	312 ± 115	120 ± 22.7	–	–
CC1(C)[C@@H]2CC[C@@]1(C)[C@@H](OC(=O)CCc1ccc(O)c(OC(F)(F)F)c1)C2 [Compound E]	64.3 ± 8.1	19.8 ± 3.61	46	2.73 ± 0.405	13.5 ± 1.183	573 ± 43.0	46.2	17.7 ± 5.46	39.1	43.5 ± 8.4	3.4	3.5	3.7	3020 ± 527	959 ± 337	314 ± 56.6	887 ± 222	274 ± 102	84.6 ± 42.3	–	–
COc1cc(/C=C/C(=O)O[C@H]2C[C@H]3CC[C@]2(C)C3(C)C)ccc1O [D-bornyl ferulate, reference compound]	64.8 ± 5.8	21.7 ± 4.35	40.9	2.84 ± 0.323	13.8 ± 0.574	658 ± 23.6	46.5	17.6 ± 4.59	36.4	45.4 ± 2.64	0.52	5	5.8	1490 ± 219	701 ± 136	276 ± 81.3	2890 ± 671	138 ± 55	47.1 ± 21.6	1.94 ± 0.19	Infarction area [6]: 21.68 ± 2.80 %
CC1(C)[C@@H]2CC[C@@]1(C)[C@@H](OC(=O)[C@H](O)Cc1ccc(O)c(O)c1)C2 [D-tanshinol borneol ester, reference compound]	67.1 ± 8.8	25.6 ± 4.65	30.2	2.76 ± 0.134	14.1 ± 0.658	687 ± 35.4	43.8	18.5 ± 4.36	33.8	47.3 ± 4.53	0.47	2.6	3.4	1040 ± 168	644 ± 99.7	177 ± 35.2	2210 ± 546	244 ± 62.4	52.8 ± 34.1	1.98 ± 0.17	Infarction area [6]: 22.76 ± 2.42 %
